Data set [1] can be described thus: In vitro release of lidocaine from silicone tube devices in water at about 37° C. The format is physicochemical. To be noted: silicone tubes about 3 cm, payload about 60 mg. On the procedure:
A study was performed to determine the feasibility of delivering drug through the wall of a drug reservoir via diffusion. Devices were formed form silicone tubes having an inner diameter of about 0.060 inches, an outer diameter of 0.076 inches, and a length of about 3 cm. […] Some of the devices included an aperture formed through the tube wall, the aperture having a diameter of 150 μm. […] The devices were tested in vitro in water at about 37° C. […] Another study was performed to investigate the feasibility of delivering drug from a device through both a wall of a drug reservoir and from an aperture in the wall of the drug reservoir. Devices were formed form silicone tubes having a length of about 3 cm. […] The devices were tested in vitro in water at about 37° C.

Data set [2] has as its system IC patients. The settings on record: cited from earlier work.

Like-named read-outs stand apart in the source and are kept apart here.

Take `CCN(CC)CC(=O)Nc1c(C)cccc1C` [lidocaine base]: the “release from silicone tube with and without apertures” value in data set [1] is “can be released from a silicone tube without any apertures”.

Regarding `CCN(CC)CC(=O)Nc1c(C)cccc1C` [lidocaine], the mean pain score in data set [2] (immediately following treatment, prior to treatment 6.0) is on record as 1.8; in data set [2] (the next day), 3.7; in data set [2] (with a second instillation), 1.2. Further, the duration of effect entry in data set [2] (single lidocaine instillation) is on record as “approximately 24 hours”.
